Test results taken from patent US20090253757A1, “Plant protection agents” (priority 1996, published 2009).

Test system: Erysiphe graminis
Assay: Activity against Erysiphe graminis on barley (residual protective / systemic)
Assay type: in vivo
From the text: A synergistic effect is present if the activity of the active ingredient combination is greater than the sum of activities of the individual components. The activity E to be expected for a given active ingredient combination obeys the so-called COLBY formula and may be calculated as follows (COLBY, S. R. “Calculating synergistic and antagonistic responses of herbicide combination”. Weeds, Vol. 15, pages 20-22; 1967): ppm=milligrams active ingredient (=ai) per litre spray mixture X=% activity from active ingredient I during application of p ppm of active ingredient Y=% activity from active ingredient II during application of q ppm of active ingredient The expected (additive) activity of active ingredients I+II during application of […] active ingredient is, according to Colby If the activity actually observed (O) is greater than the expected activity (E), then the combination is super-additive in its activity, i.e. there is a synergistic effect ([…] factor). Barley plants of approximately 8 cm height are sprayed until dripping wet with an aqueous spray mixture prepared from wettable powder of the active ingredient mixture, and 3 to 4 hours later are dusted with conidia of the fungus. The infected plants are placed in a greenhouse at […]. 12 days after infection, the fungal attack is evaluated. An aqueous spray mixture prepared from wettable powder of the active ingredient mixture is poured onto barley plants of approximately 8 cm height. […] 48 hours later, the plants are dusted with conidia of the fungus. The infected plants are placed in a greenhouse at 22° C. 12 days after infection, the fungal attack is evaluated.

In the case of `Fc1ccc(Oc2ccnc3cc(Cl)cc(Cl)c23)cc1` [IIA, 5,7-dichloro-4-(4-fluorophenoxy)quinoline], the inhibition at 0.1 µg/mL (Blumeria graminis, active ingredient IIA 0.1 mg/litre alone, read-out: % activity found O) is reported as 4%, the inhibition at 0.5 µg/mL (Blumeria graminis, active ingredient IIA 0.5 mg/litre alone, read-out: % activity found O) is reported as 6% and the inhibition at 1 µg/mL (Blumeria graminis, active ingredient IIA 1.0 mg/litre alone, read-out: % activity found O) is reported as 8%. The inhibition at 10 µg/mL (Blumeria graminis, active ingredient IIA 10.0 mg/litre alone, read-out: % activity found O) was 21%.
With `CON=C(C(=O)OC)c1ccccc1CON=C(C)c1cccc(C(F)(F)F)c1` [I, 2-[α-{[(α-methyl-3-trifluoromethyl-benzyl)imino]-oxy}-o-tolyl]-glyoxylic acid-methylester-O-methyloxime] the “% activity found O” value (active ingredient I 0.1 mg/litre alone) was 6% and the “% activity found O” value (active ingredient I 1.0 mg/litre alone) was 30%.
